According to ChEMBL document CHEMBL3046844, “Synthesis of novel 4-thiazolidione derivatives as antibacterial agents against drug-resistant Staphylococcus epidermidis” (2013):
In brackets after ≈: the same amount, converted by molar mass.

How the values were obtained:
Type in all cases: functional
[1] = system: Salmonella; test: Antibacterial activity against Salmonella assessed as growth inhibition after 12 hr by CLSI broth microdilution method
[2] = system: Escherichia coli; test: Antibacterial activity against Escherichia coli ATCC 25922 assessed as growth inhibition after 12 hr by CLSI broth microdilution method; conditions: ATCC 25922, 12 h
[3] = system: Staphylococcus epidermidis; test: Antibacterial activity against Staphylococcus epidermidis RP62A assessed as growth inhibition after 12 hr by CLSI broth microdilution method
[4] = system: Staphylococcus epidermidis; test: Antibacterial activity against methicillin-resistant Staphylococcus epidermidis 8354 clinical isolate assessed as growth inhibition after 12 hr by CLSI broth microdilution method; conditions: Staphylococcus epidermidis, 8354, 12 h
[5] = system: Staphylococcus epidermidis; test: Antibacterial activity against methicillin-resistant Staphylococcus epidermidis 8311 clinical isolate assessed as growth inhibition after 12 hr by CLSI broth microdilution method; conditions: Staphylococcus epidermidis, 8311, 12 h
[6] = system: Staphylococcus aureus; test: Antibacterial activity against methicillin-resistant Staphylococcus aureus 8166 clinical isolate assessed as growth inhibition after 12 hr by CLSI broth microdilution method; conditions: Staphylococcus aureus, 8166, 12 h
[7] = system: Staphylococcus aureus; test: Antibacterial activity against methicillin-resistant Staphylococcus aureus 8282 clinical isolate assessed as growth inhibition after 12 hr by CLSI broth microdilution method; conditions: Staphylococcus aureus, 8282, 12 h

MIC [1]	MIC [2]	MIC [3]	Structure (SMILES)	MIC [4]	MIC [5]	MIC [6]	MIC [7]
> 200 µM	> 200 µM	12.5 µM (≈ 6.98 µg/mL)	O=C(O)c1ccc(/C=C2/S/C(=N\c3ccc(Br)cc3)N(c3ccc(Br)cc3)C2=O)cc1				
> 200 µM	> 200 µM	> 200 µM	O=C(O)c1ccc(COc2ccc(/C=C3/S/C(=N\c4ccc(Cl)cc4)N(c4ccc(Cl)cc4)C3=O)cc2)cc1				
> 200 µM	> 200 µM	6.25 µM (≈ 3.31 µg/mL)	COc1cc(/C=C2/S/C(=N\c3ccc(Cl)cc3)N(c3ccc(Cl)cc3)C2=O)ccc1OCC(=O)O				
> 200 µM	> 200 µM	11.5 µM (≈ 4.02 µg/mL)	CC1(C)S[C@@H]2[C@H](NC(=O)[C@H](N)c3ccccc3)C(=O)N2[C@H]1C(=O)O [AMPICILLIN]				
> 200 µM	> 200 µM	50 µM (≈ 25.8 µg/mL)	CCc1ccccc1/N=C1\S/C(=C/c2ccc(OCC(=O)O)c(OC)c2)C(=O)N1c1ccccc1CC				
> 200 µM	> 200 µM	25 µM (≈ 10.9 µg/mL)	O=C(O)c1ccc(/C=C2/S/C(=N\c3ccc(F)cc3)N(c3ccc(F)cc3)C2=O)cc1				

Continued, compound first:

Structure (SMILES)	MIC [1]	MIC [2]	MIC [3]	MIC [4]	MIC [5]	MIC [6]	MIC [7]
O=C(O)COc1cccc(/C=C2/S/C(=N\c3ccc(Cl)cc3)N(c3ccc(Cl)cc3)C2=O)c1	> 200 µM	> 200 µM	25 µM (≈ 12.5 µg/mL)				
COc1cccc(OC)c1C(=O)N[C@@H]1C(=O)N2[C@@H]1SC(C)(C)[C@@H]2C(=O)O [METHICILLIN]	> 200 µM	> 200 µM	5.26 µM (≈ 2 µg/mL)	65.7 µM (≈ 25 µg/mL)	65.7 µM (≈ 25 µg/mL)	65.7 µM (≈ 25 µg/mL)	65.7 µM (≈ 25 µg/mL)
O=C(O)COc1ccc(/C=C2/S/C(=N\c3cccc(Cl)c3)N(c3cccc(Cl)c3)C2=O)cc1	> 200 µM	> 200 µM	3.13 µM (≈ 1.56 µg/mL)	3.13 µM (≈ 1.56 µg/mL)	3.13 µM (≈ 1.56 µg/mL)	12.5 µM (≈ 6.24 µg/mL)	3.13 µM (≈ 1.56 µg/mL)
O=C(O)COc1ccc(/C=C2/S/C(=N\c3ccccc3)N(c3ccccc3)C2=O)cc1	> 200 µM	> 200 µM	100 µM (≈ 43 µg/mL)				
O=C(O)c1ccc(/C=C2/S/C(=N\c3ccccc3)N(c3ccccc3)C2=O)cc1	> 200 µM	> 200 µM	50 µM (≈ 20 µg/mL)				
O=C(O)COc1ccc(/C=C2/S/C(=N\c3ccc(Br)cc3)N(c3ccc(Br)cc3)C2=O)cc1	> 200 µM	> 200 µM	3.13 µM (≈ 1.84 µg/mL)	3.13 µM (≈ 1.84 µg/mL)	3.13 µM (≈ 1.84 µg/mL)	6.25 µM (≈ 3.68 µg/mL)	3.13 µM (≈ 1.84 µg/mL)
O=C(O)c1ccc(/C=C2/S/C(=N\c3ccc(Cl)cc3)N(c3ccc(Cl)cc3)C2=O)cc1	> 200 µM	> 200 µM	3.13 µM (≈ 1.47 µg/mL)	3.13 µM (≈ 1.47 µg/mL)	3.13 µM (≈ 1.47 µg/mL)	12.5 µM (≈ 5.87 µg/mL)	3.13 µM (≈ 1.47 µg/mL)
C[C@H]1COc2c(N3CCN(C)CC3)c(F)cc3c(=O)c(C(=O)O)cn1c23 [LEVOFLOXACIN]				22.1 µM (≈ 7.99 µg/mL)	22.1 µM (≈ 7.99 µg/mL)	22.1 µM (≈ 7.99 µg/mL)	22.1 µM (≈ 7.99 µg/mL)
O=C(O)COc1ccc(/C=C2/S/C(=N\c3ccc(Cl)cc3)N(c3ccc(Cl)cc3)C2=O)cc1	> 200 µM	> 200 µM	1.57 µM (≈ 0.784 µg/mL)	1.57 µM (≈ 0.784 µg/mL)	1.57 µM (≈ 0.784 µg/mL)	6.25 µM (≈ 3.12 µg/mL)	3.13 µM (≈ 1.56 µg/mL)
O=C(O)COc1ccc(/C=C2/S/C(=N\c3ccc(F)cc3)N(c3ccc(F)cc3)C2=O)cc1	> 200 µM	> 200 µM	25 µM (≈ 11.7 µg/mL)				
O=C(O)COc1ccc(/C=C2/S/C(=N\c3ccccc3Cl)N(c3ccccc3Cl)C2=O)cc1	> 200 µM	> 200 µM	3.13 µM (≈ 1.56 µg/mL)	3.13 µM (≈ 1.56 µg/mL)	3.13 µM (≈ 1.56 µg/mL)	12.5 µM (≈ 6.24 µg/mL)	3.13 µM (≈ 1.56 µg/mL)
